Laboratory results as given in patent publication US20180179198A1, “TRICYCLIC MODULATORS OF TNF SIGNALING” (AbbVie Inc., priority 2015, published 2018).

What follows are molecules tested against TNFα trimer (Homo sapiens, UniProt P01375) (assay: TNFα FP Competitive Binding Assay). Details: TNFα FP competitive binding assay; class symbols A/B/C; read-out: TNF IC50.
How it was run: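 Compounds, 12-point 1:3 dilutions topping at 100 μM (2.0% DMSO) or 338 μM (3.4% DMSO) final, compete with 1 nM fluorescent probe for 20 nM TNFα trimer in HEPES/NaCl/EDTA/Triton buffer. After 18-24 h incubation at 37 °C plus 1 h rt equilibration, background-subtracted polarization is read and fitted with variable slope.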

TNFα trimer, sequence (P01375 77-233 limits assumed): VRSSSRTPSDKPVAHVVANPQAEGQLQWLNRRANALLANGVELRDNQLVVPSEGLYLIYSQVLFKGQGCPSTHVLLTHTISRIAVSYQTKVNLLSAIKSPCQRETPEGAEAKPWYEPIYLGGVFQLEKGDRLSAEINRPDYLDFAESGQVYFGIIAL

| IC50 [µM] | SMILES |
| --- | --- |
| < 1 | COc1ccccc1C1CCCCc2nc3ccc(-c4cnc(N5CCOCC5)nc4)cn3c21 (centres unmarked) [S.1] |

Same assay, conditions: fluorescence polarization competition; 20 nM TNFα trimer, 1 nM OregonGreen488 probe; read-out: TNF IC50 (TNFα FP binding assay IC50)

| IC50 [µM] | SMILES |
| --- | --- |
| < 1 | OCC1CCCN(c2ncc(-c3ccc4nc5n(c4c3)[C@@H](c3ccccc3)COC5)cn2)C1 (some centres unmarked) [G.4] |
| 1 to 10 | OCCCN1CCN(c2ncc(-c3ccc4nc5n(c4c3)[C@@H](c3ccccc3)COC5)cn2)CC1 [G.5] |
| 1 to 10 | O=C1NCNC12CCN(c1ncc(-c3ccc4nc5n(c4c3)[C@@H](c3ccccc3)COC5)cn1)CC2 [G.6] |
| 1 to 10 | CC(O)C1CCN(c2ncc(-c3ccc4nc5n(c4c3)[C@@H](c3ccccc3)COC5)cn2)CC1 (some centres unmarked) [G.7] |
| < 1 | c1ccc([C@H]2COCc3nc4ccc(-c5cnc(N6CCC7(CC6)COC7)nc5)cc4n32)cc1 [G.8] |
| 1 to 10 | O=C1CN(c2ncc(-c3ccc4nc5n(c4c3)[C@@H](c3ccccc3)COC5)cn2)CCCN1 [G.9] |
| 1 to 10 | O=C(O)CCC1CCN(c2ncc(-c3ccc4nc5n(c4c3)[C@@H](c3ccccc3)COC5)cn2)CC1 [G.10] |
| < 1 | OC1CCCN(c2ncc(-c3ccc4nc5n(c4c3)[C@@H](c3ccccc3)COC5)cn2)CC1 (some centres unmarked) [G.11] |
| < 1 | NS(=O)(=O)N1CCN(c2ncc(-c3ccc4nc5n(c4c3)[C@@H](c3ccccc3)COC5)cn2)CC1 [G.12] |
| 1 to 10 | CN1CCC(N2CCN(c3ncc(-c4ccc5nc6n(c5c4)[C@@H](c4ccccc4)COC6)cn3)CC2)CC1 [G.13] |
| < 1 | OCC1(F)CCN(c2ncc(-c3ccc4nc5n(c4c3)[C@@H](c3ccccc3)COC5)cn2)CC1 [G.14] |
| 1 to 10 | FC(F)(F)C1CN(c2ncc(-c3ccc4nc5n(c4c3)[C@@H](c3ccccc3)COC5)cn2)CCO1 (some centres unmarked) [G.15] |
| 1 to 10 | c1ccc([C@H]2COCc3nc4ccc(-c5cnc(N6CCC7(COC7)C6)nc5)cc4n32)cc1 [G.16] |
| 10 to 100 | c1ccc([C@H]2COCc3nc4ccc(-c5cnc(N6CC(N7CCOCC7)C6)nc5)cc4n32)cc1 [G.17] |
| 1 to 10 | CS(=O)(=O)[C@@H]1CCN(c2ncc(-c3ccc4nc5n(c4c3)[C@@H](c3ccccc3)COC5)cn2)C1 [G.18] |
| 1 to 10 | CS(=O)(=O)NC1CCN(c2ncc(-c3ccc4nc5n(c4c3)[C@@H](c3ccccc3)COC5)cn2)CC1 [G.19] |
| < 1 | OCCC1(O)CCN(c2ncc(-c3ccc4nc5n(c4c3)[C@@H](c3ccccc3)COC5)cn2)CC1 [G.20] |
| 1 to 10 | CN1CCC(C2CCN(c3ncc(-c4ccc5nc6n(c5c4)[C@@H](c4ccccc4)COC6)cn3)CC2)CC1 [G.21] |
| < 1 | CC1(O)CCN(c2ncc(-c3ccc4nc5n(c4c3)[C@@H](c3ccccc3)COC5)cn2)CC1 [G.22] |
| 1 to 10 | CC1CN(c2ncc(-c3ccc4nc5n(c4c3)[C@@H](c3ccccc3)COC5)cn2)CC(C)O1 (some centres unmarked) [G.23] |
| < 1 | CS(=O)(=O)N1CCN(c2ncc(-c3ccc4nc5n(c4c3)[C@@H](c3ccccc3)COC5)cn2)CC1 [G.24] |
| 10 to 100 | O[C@H]1CN(c2ncc(-c3ccc4nc5n(c4c3)[C@@H](c3ccccc3)COC5)cn2)C[C@@H]1O [G.25] |
| 10 to 100 | O[C@@H]1CN(c2ncc(-c3ccc4nc5n(c4c3)[C@@H](c3ccccc3)COC5)cn2)C[C@H]1O [G.26] |
| 1 to 10 | O=C1OCC2CN(c3ncc(-c4ccc5nc6n(c5c4)[C@@H](c4ccccc4)COC6)cn3)CCN12 (some centres unmarked) [G.27] |
| < 1 | c1ccc([C@H]2COCc3nc4ccc(-c5cnc(N6CCn7cnnc7C6)nc5)cc4n32)cc1 [G.28] |
| 1 to 10 | CS(=O)(=O)C1CCN(c2ncc(-c3ccc4nc5n(c4c3)[C@@H](c3ccccc3)COC5)cn2)C1 (some centres unmarked) [G.29] |

| IC50 [µM] | SMILES |
| --- | --- |
| < 1 | O=C1CN(c2ncc(-c3ccc4nc5n(c4c3)[C@@H](c3ccccc3)COC5)cn2)CCN1 [G.30] |
| 1 to 10 | OCCC1(O)CCN(c2ncc(-c3ccc4nc5n(c4c3)[C@@H](c3ccccc3)COC5)cn2)C1 (some centres unmarked) [G.31] |
| < 1 | c1ccc([C@H]2COCc3nc4ccc(-c5cnc(N6CCCOCC6)nc5)cc4n32)cc1 [G.32] |
| 1 to 10 | CS(=O)(=O)C1(CO)CCN(c2ncc(-c3ccc4nc5n(c4c3)[C@@H](c3ccccc3)COC5)cn2)CC1 [G.33] |
| < 1 | OC1CC2(CCN(c3ncc(-c4ccc5nc6n(c5c4)[C@@H](c4ccccc4)COC6)cn3)C2)C1 (some centres unmarked) [G.34] |
| < 1 | OCC1CN(c2ncc(-c3ccc4nc5n(c4c3)[C@@H](c3ccccc3)COC5)cn2)CCO1 (some centres unmarked) [G.35] |
| 10 to 100 | O=C(O)C1CN(c2ncc(-c3ccc4nc5n(c4c3)C(c3ccccc3)CCC5)cn2)C1 (centres unmarked) [H.1] |
| 1 to 10 | O=C(O)C1CCN(c2ncc(-c3ccc4nc5n(c4c3)C(c3ccccc3)CCC5)cn2)CC1 (centres unmarked) [H.2] |
| 1 to 10 | O=C1CN(c2ncc(-c3ccc4nc5n(c4c3)C(c3ccccc3)CCC5)cn2)CCN1 (centres unmarked) [H.3] |
| 1 to 10 | OC1(c2cccc(Cl)c2)CCCc2nc3ccc(-c4cnc(N5CCOCC5)nc4)cn3c21 (centres unmarked) [I.1, 9-(3-Chlorophenyl)-2-(2-morpholinopyrimidin-5-yl)-6,7,8,9-tetrahydrobenzo[4,5]imidazo[1,2-a]pyridin-9-ol] |
| 1 to 10 | OC1(c2ccccc2)CCCc2nc3ccc(-c4cnc(N5CCOCC5)nc4)cn3c21 (centres unmarked) [I.2] |
| 1 to 10 | Cc1cccc(C2(O)CCCc3nc4ccc(-c5cnc(N6CCOCC6)nc5)cn4c32)c1 (centres unmarked) [I.3] |
| 1 to 10 | OC1(c2cccc(F)c2)CCCc2nc3ccc(-c4cnc(N5CCOCC5)nc4)cn3c21 (centres unmarked) [I.4] |
| 1 to 10 | Cc1c(F)cccc1C1(O)CCCc2nc3ccc(-c4cnc(N5CCOCC5)nc4)cn3c21 (centres unmarked) [I.5] |
| 1 to 10 | OC1(c2ccc(F)cc2)CCCc2nc3ccc(-c4cnc(N5CCOCC5)nc4)cn3c21 (centres unmarked) [I.6] |
| 1 to 10 | OC1(c2cc(F)cc(Cl)c2)CCCc2nc3ccc(-c4cnc(N5CCOCC5)nc4)cn3c21 (centres unmarked) [I.7] |
| 1 to 10 | Cc1ccc(C2(O)CCCc3nc4ccc(-c5cnc(N6CCOCC6)nc5)cn4c32)cc1 (centres unmarked) [I.8] |
| < 1 | OC1(c2cccc(F)c2)CCCCc2nc3ccc(-c4cnc(N5CCOCC5)nc4)cn3c21 (centres unmarked) [J.1] |
| 1 to 10 | OC1(c2cccc(Cl)c2)CCCCc2nc3ccc(-c4cnc(N5CCOCC5)nc4)cn3c21 (centres unmarked) [J.2] |
| 1 to 10 | Cc1cccc(C2(O)CCCCc3nc4ccc(-c5cnc(N6CCOCC6)nc5)cn4c32)c1 (centres unmarked) [J.3] |
| 1 to 10 | OC1(c2ccc(F)cc2)CCCCc2nc3ccc(-c4cnc(N5CCOCC5)nc4)cn3c21 (centres unmarked) [J.4] |
| 1 to 10 | OC1(c2cc(F)cc(Cl)c2)CCCCc2nc3ccc(-c4cnc(N5CCOCC5)nc4)cn3c21 (centres unmarked) [J.5] |
| 1 to 10 | COc1ccc(C2(O)CCCCc3nc4ccc(-c5cnc(N6CCOCC6)nc5)cn4c32)cc1 (centres unmarked) [J.6] |
| 1 to 10 | Cc1ccc(C2(O)CCCCc3nc4ccc(-c5cnc(N6CCOCC6)nc5)cn4c32)cc1 (centres unmarked) [J.7] |
| 1 to 10 | OC1(c2ccc(Cl)cc2)CCCCc2nc3ccc(-c4cnc(N5CCOCC5)nc4)cn3c21 (centres unmarked) [J.8] |
| 10 to 100 | COc1cc(OC)cc(C2(O)CCCCc3nc4ccc(-c5cnc(N6CCOCC6)nc5)cn4c32)c1 (centres unmarked) [J.9] |

| IC50 [µM] | SMILES |
| --- | --- |
| 10 to 100 | COc1cccc(C2(O)CCCCc3nc4ccc(-c5cnc(N6CCOCC6)nc5)cn4c32)c1 (centres unmarked) [J.10] |
| < 1 | Clc1cccc(C2CCCc3nc4ccc(-c5cnc(N6CCOCC6)nc5)cn4c32)c1 (centres unmarked) [K.1] |
| < 1 | CC(C)(O)c1ncc(-c2ccc3nc4n(c3n2)C(c2ccccc2)CC4)cn1 (centres unmarked) [L.1] |
| < 1 | O=C1CN(c2ncc(-c3ccc4nc5n(c4n3)C(c3ccccc3)CC5)cn2)CCN1 (centres unmarked) [L.2] |
| < 1 | OC1CCN(c2ncc(-c3ccc4nc5n(c4n3)C(c3ccccc3)CC5)cn2)CC1 (centres unmarked) [L.3, 1-(5-(8-phenyl-7,8-dihydro-6H-pyrrolo[2′,1′:2,3]imidazo[4,5-b]pyridin-2-yl)pyrimidin-2-yl)piperidin-4-ol] |
| < 1 | O=C1NCC2CN(c3ncc(-c4ccc5nc6n(c5n4)C(c4ccccc4)CC6)cn3)CCN12 (centres unmarked) [L.4] |
| < 1 | Fc1cccc(C2CCc3nc4ccc(-c5cnc(N6CCOCC6)nc5)nc4n32)c1 (centres unmarked) [M.1] |
| < 1 | CC(C)(O)c1ncc(-c2ccc3nc4n(c3n2)C(c2cccc(F)c2)CC4)cn1 (centres unmarked) [M.2] |
| < 1 | O=C1CN(c2ncc(-c3ccc4nc5n(c4n3)C(c3cccc(F)c3)CC5)cn2)CCN1 (centres unmarked) [M.3] |
| < 1 | OC1CCN(c2ncc(-c3ccc4nc5n(c4n3)C(c3cccc(F)c3)CC5)cn2)CC1 (centres unmarked) [M.4, 1-(5-(8-(3-fluorophenyl)-7,8-dihydro-6H-pyrrolo[2′,1′:2,3]imidazo[4,5-b]pyridin-2-yl)pyrimidin-2-yl)piperidin-4-ol] |
| < 1 | O=C1NCC2CN(c3ncc(-c4ccc5nc6n(c5n4)C(c4cccc(F)c4)CC6)cn3)CCN12 (centres unmarked) [M.5] |
| < 1 | Cc1ccc(C)c(C2CCc3nc4ccc(-c5cnc(N6CCOCC6)nc5)nc4n32)c1 (centres unmarked) [N.1] |
| < 1 | Cc1ccc(C)c(C2CCc3nc4ccc(-c5cnc(N6CCNC(=O)C6)nc5)nc4n32)c1 (centres unmarked) [N.2] |
| < 1 | Cc1ccc(C)c(C2CCc3nc4ccc(-c5cnc(N6CCC(O)CC6)nc5)nc4n32)c1 (centres unmarked) [N.3] |
| < 1 | Cc1ccc(C)c(C2CCc3nc4ccc(-c5cnc(N6CCN7C(=O)NCC7C6)nc5)nc4n32)c1 (centres unmarked) [N.4] |
| < 1 | c1ccc(C2CCCc3nc4ccc(-c5cnc(N6CCOCC6)nc5)nc4n32)cc1 (centres unmarked) [O.1] |
| < 1 | CC(C)(O)c1ncc(-c2ccc3nc4n(c3n2)C(c2ccccc2)CCC4)cn1 (centres unmarked) [O.2] |
| < 1 | O=C1CN(c2ncc(-c3ccc4nc5n(c4n3)C(c3ccccc3)CCC5)cn2)CCN1 (centres unmarked) [O.3] |
| < 1 | OC1CCN(c2ncc(-c3ccc4nc5n(c4n3)C(c3ccccc3)CCC5)cn2)CC1 (centres unmarked) [O.4] |
| 1 to 10 | c1ccc(C2CCc3nc4cnc(-c5cnc(N6CCOCC6)nc5)cc4n32)cc1 (centres unmarked) [P.1] |
| 1 to 10 | CC(C)(O)c1ncc(-c2cc3c(cn2)nc2n3C(c3ccccc3)CC2)cn1 (centres unmarked) [P.2] |
| 10 to 100 | O=C1CN(c2ncc(-c3cc4c(cn3)nc3n4C(c4ccccc4)CC3)cn2)CCN1 (centres unmarked) [P.3] |
| 10 to 100 | O=C1CN(c2ncc(-c3cnc4nc5n(c4c3)C(c3ccccc3)CCC5)cn2)CCN1 (centres unmarked) [Q.1] |
| < 1 | COc1ccccc1C1CCCc2nc3ccc(-c4ccc(OCC(=O)O)nc4)cn3c21 (centres unmarked) [R.1] |
